The IC50 is the concentration that inhibits the measured activity by half.

Chain of IDO1 (P14902 whole entry): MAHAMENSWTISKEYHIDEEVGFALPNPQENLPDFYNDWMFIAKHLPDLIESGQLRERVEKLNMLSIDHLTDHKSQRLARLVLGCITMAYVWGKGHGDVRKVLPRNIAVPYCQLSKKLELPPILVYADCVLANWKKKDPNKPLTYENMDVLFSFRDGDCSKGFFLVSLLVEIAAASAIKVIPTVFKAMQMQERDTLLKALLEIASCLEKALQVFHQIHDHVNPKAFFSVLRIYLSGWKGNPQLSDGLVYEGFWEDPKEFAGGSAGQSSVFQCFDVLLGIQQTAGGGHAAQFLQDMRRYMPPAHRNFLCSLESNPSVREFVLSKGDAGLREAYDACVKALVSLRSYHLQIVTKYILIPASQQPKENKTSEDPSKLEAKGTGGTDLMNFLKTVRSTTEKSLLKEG

This assay addresses IDO1 (Homo sapiens, UniProt P14902). Nature of the assay: IDO1 cellular activity using HEK293 cells transfected with IDO1 expression vector. It counts as cell-based. Set-up: host or cells: HEK293 cells, transient transfection with Lipofectamine 2000. As to conditions: 24 h compound incubation, read-out: Inhibitory Activity (IC50). As to the method: HEK293 cells were seeded at a density of 30000 cells/well in 100 μl of a culture medium (DMEM supplemented with 10% FBS, penicillin 100 U/ml, and streptomycin 100 μg/ml) in a tissue culture-treated 96 well plate. The cells were cultured in a 5% carbon dioxide incubator for 24 hours, transfected with the IDO1 expression vector (component A in IDO1 cell-based assay kit, catalog #72031, BPS Bioscience) using Lipofectamine 2000 (Life Technologies, #11668027), and then cultured for 24 hours in a 5% carbon dioxide incubator to express the IDO protein.
The activities were measured using a IDO1 cell-based assay kit (catalog #72031, BPS Bioscience). Specifically, an assay medium was prepared by diluting IDO1 assay medium substrate 1 and IDO1 assay medium supplement 2 in a culture medium at a ratio of 1:100, respectively. The test compounds were diluted to the predetermined concentrations in the fresh assay medium. After removing the culture medium using a multi-pipet, 200 μl of each assay medium containing the test material was added into respective well, followed by incubating in a 5% carbon dioxide incubator for 24 hours. The next day, 140 μl of culture medium from each well was transferred to a new 96-well plate. 10 μl of 6.1N trichloroacetic acid was added into each well, which was then cultured in a 50° C. incubator for 30 minutes. The plate was centrifuged at 2500 rpm for 10 minutes to settle any sediment. A detection reagent solution was prepared by diluting the detection reagent (component D in IDO1 cell-based assay kit, catalog #72031 BPS Bioscience) 50-fold in acetic acid. 100 μl of the supernatant taken from the centrifuged plate was transferred to a new transparent 96-well plate and then 100 μl of the detection reagent solution was added thereto. After reacting at room temperature for 10 minutes, absorbance was measured at 480 nm wavelength. For analysis of the results, the absorbance (At) of the well containing HEK293 cells in which IDO protein was expressed without treatment of an inhibitor was 100%; and the absorbance (Ab) of the well containing HEK293 cells in which IDO protein was not expressed was 0. The % absorbance was calculated according to the following equation: % Absorbance=(A−Ab)/(At−Ab), A=absorbance of the well treated with the test compound.
As to `C[C@H](C[C@H]1CC[C@H](c2ccnc3ccc(F)cc32)CC1)Nc1nc(Cl)nc2ccc(F)cc12` [Example 48, 2-chloro-6-fluoro-N-((R)-1-((trans)-4-(6-fluoroquinolin-4-yl)cyclohexyl)propan-2-yl)quinazolin-4-amine], the IC50 worked out at 45.4 nM. Regarding `Cc1ccc2c(N[C@H](C)C[C@H]3CC[C@@H](c4ccnc5ccc(F)cc54)CC3)nc(Cl)nc2c1` [Example 65, 2-chloro-N-((R)-1-((cis)-4-(6-fluoroquinolin-4-yl)cyclohexyl)propan-2-yl)-7-methylquinazolin-4-amine], the half-inhibitory concentration (IC50) turned out to be 16.1 nM. With `C[C@H](C[C@H]1CC[C@@H](c2ccnc3ccc(F)cc32)CC1)Nc1nc2cc(F)c(Cl)cc2o1` [Example 43, 6-chloro-5-fluoro-N-((R)-1-((cis)-4-(6-fluoroquinolin-4-yl)cyclohexyl)propan-2-yl)benzo[d]oxazol-2-amine], the 50% inhibitory concentration (IC50) worked out at 6.3 nM.

Take `C[C@H](C[C@H]1CC[C@@H](c2ccnc3ccc(F)cc32)CC1)Nc1nc2cccc(F)c2o1` [Example 37, 7-fluoro-N-((R)-1-((cis)-4-(6-fluoroquinolin-4-yl)cyclohexyl)propan-2-yl)benzo[d]oxazol-2-amine]: the 50% inhibitory concentration (IC50) amounted to 7.6 nM.

Consider `C[C@H](C[C@H]1CC[C@@H](c2ccnc3ccc(F)cc32)CC1)Nc1nc2ccc(Cl)c(Cl)c2o1` [Example 46, 6,7-dichloro-N-((R)-1-((cis)-4-(6-fluoroquinolin-4-yl)cyclohexyl)propan-2-yl)benzo[d]oxazol-2-amine], for which the IC50 was 17.2 nM.

As for `C[C@H](C[C@H]1CC[C@@H](c2ccnc3ccc(F)cc32)CC1)Nc1nc2ccc(F)c(F)c2o1` [Example 47, 6,7-difluoro-N-((R)-1-((cis)-4-(6-fluoroquinolin-4-yl)cyclohexyl)propan-2-yl)benzo[d]oxazol-2-amine], the IC50 turned out to be 5.5 nM.

`C[C@H](C[C@H]1CC[C@@H](c2ccnc3ccc(F)cc32)CC1)Nc1nc(Cl)nc2cc(C(F)(F)F)ccc12` [Example 66, 2-chloro-N-((R)-1-((cis)-4-(6-fluoroquinolin-4-yl)cyclohexyl)propan-2-yl)-7-(trifluoromethyl)quinazolin-4-amine]: the IC50 was found to be 30.8 nM. The result for `C[C@H](C[C@H]1CC[C@@H](c2ccnc3ccc(F)cc32)CC1)Nc1nc(Cl)nc2c(OC(F)(F)F)cccc12` [Example 71, 2-chloro-N-((R)-1-((cis)-4-(6-fluoroquinolin-4-yl)cyclohexyl)propan-2-yl)-8-(trifluoromethoxy)quinazolin-4-amine] reads 276 nM; that for `C[C@H](C[C@H]1CC[C@@H](c2ccnc3ccc(F)cc32)CC1)Nc1nc(Cl)nc2cc(F)ccc12` [Example 62, 2-chloro-7-fluoro-N-((R)-1-((cis)-4-(6-fluoroquinolin-4-yl)cyclohexyl)propan-2-yl)quinazolin-4-amine], 56.6 nM. With `C[C@H](C[C@H]1CC[C@@H](c2ccnc3ccc(F)cc32)CC1)Nc1nccc2cc(Cl)ccc12` [Example 34, 6-chloro-N-((R)-1-((cis)-4-(6-fluoroquinolin-4-yl)cyclohexyl)propan-2-yl)isoquinolin-1-amine] the figure was 68.6 nM. The result for `C[C@H](C[C@H]1CC[C@H](c2ccnc3ccc(F)cc32)CC1)Nc1nc(Cl)nc2cc(Br)ccc12` [Example 56, 7-bromo-2-chloro-N-((R)-1-((trans)-4-(6-fluoroquinolin-4-yl)cyclohexyl)propan-2-yl)quinazolin-4-amine] reads 19.3 nM. `C[C@H](C[C@H]1CC[C@H](c2ccnc3ccc(F)cc32)CC1)Nc1nc(Cl)nc2cc(F)ccc12` [Example 54, 2-chloro-7-fluoro-N-((R)-1-((trans)-4-(6-fluoroquinolin-4-yl)cyclohexyl)propan-2-yl)quinazolin-4-amine]: the 50% inhibitory concentration (IC50) amounted to 43.6 nM.

Regarding `C[C@H](C[C@H]1CC[C@@H](c2ccnc3ccc(F)cc32)CC1)Nc1nc(Cl)nc2ccc(Cl)cc12` [Example 61, 2,6-dichloro-N-((R)-1-((cis)-4-(6-fluoroquinolin-4-yl)cyclohexyl)propan-2-yl)quinazolin-4-amine], the IC50 stood at 406 nM. With `C[C@H](C[C@H]1CC[C@@H](c2ccnc3ccc(F)cc32)CC1)Nc1nc(Cl)nc2c(Cl)cccc12` [Example 68, 2,8-dichloro-N-((R)-1-((cis)-4-(6-fluoroquinolin-4-yl)cyclohexyl)propan-2-yl)quinazolin-4-amine] the figure was 50.5 nM; with `C[C@H](C[C@H]1CC[C@@H](c2ccnc3ccc(F)cc32)CC1)Nc1nc(Cl)nc2ccc(F)cc12` [Example 60, 2-chloro-6-fluoro-N-((R)-1-((cis)-4-(6-fluoroquinolin-4-yl)cyclohexyl)propan-2-yl)quinazolin-4-amine], 61.1 nM.

In the case of `C[C@H](C[C@H]1CC[C@@H](c2ccnc3ccc(F)cc32)CC1)Nc1nc2cc(F)ccc2o1` [Example 36, 5-fluoro-N-((R)-1-((cis)-4-(6-fluoroquinolin-4-yl)cyclohexyl)propan-2-yl)benzo[d]oxazol-2-amine], the half-inhibitory concentration (IC50) stood at 5.7 nM.

In the case of `C[C@H](C[C@H]1CC[C@H](c2ccnc3ccc(F)cc32)CC1)Nc1nc(Cl)nc2cc(Cl)ccc12` [Example 41, 2,7-dichloro-N-((R)-1-((trans)-4-(6-fluoroquinolin-4-yl)cyclohexyl)propan-2-yl)quinazolin-4-amine], the IC50 worked out at 7.6 nM. With `COc1cccc2c(N[C@H](C)C[C@H]3CC[C@H](c4ccnc5ccc(F)cc54)CC3)nc(Cl)nc12` [Example 52, 2-chloro-N-((R)-1-((trans)-4-(6-fluoroquinolin-4-yl)cyclohexyl)propan-2-yl)-8-methoxyquinazolin-4-amine] the figure was 260 nM. With `C[C@H](C[C@H]1CC[C@@H](c2ccnc3ccc(F)cc32)CC1)Nc1nc(Cl)nc2cc(Cl)ccc12` [Example 40, 2,7-dichloro-N-((R)-1-((cis)-4-(6-fluoroquinolin-4-yl)cyclohexyl)propan-2-yl)quinazolin-4-amine] the figure was 21.9 nM; with `COc1cccc2c(N[C@H](C)C[C@H]3CC[C@@H](c4ccnc5ccc(F)cc54)CC3)nc(Cl)nc12` [Example 70, 2-chloro-N-((R)-1-((cis)-4-(6-fluoroquinolin-4-yl)cyclohexyl)propan-2-yl)-8-methoxyquinazolin-4-amine], 114 nM; with `COc1ccc2c(N[C@H](C)C[C@H]3CC[C@H](c4ccnc5ccc(F)cc54)CC3)nc(Cl)nc2c1` [Example 59, 2-chloro-N-((R)-1-((trans)-4-(6-fluoroquinolin-4-yl)cyclohexyl)propan-2-yl)-7-methoxyquinazolin-4-amine], 19.4 nM. With `COc1ccc2nc(N[C@H](C)C[C@H]3CC[C@@H](c4ccnc5ccc(F)cc54)CC3)oc2c1F` [Example 42, 7-fluoro-N-((R)-1-((cis)-4-(6-fluoroquinolin-4-yl)cyclohexyl)propan-2-yl)-6-methoxybenzo[d]oxazol-2-amine] the figure was 6.6 nM; with `C[C@H](C[C@H]1CC[C@H](c2ccnc3ccc(F)cc32)CC1)Nc1nc(Cl)nc2c(F)cccc12` [Example 50, 2-chloro-8-fluoro-N-((R)-1-((trans)-4-(6-fluoroquinolin-4-yl)cyclohexyl)propan-2-yl)quinazolin-4-amine], 62.3 nM. As to `C[C@H](C[C@H]1CC[C@@H](c2ccnc3ccc(F)cc32)CC1)Nc1nncc2cc(Cl)ccc12` [Example 39, 6-chloro-N-((R)-1-((cis)-4-(6-fluoroquinolin-4-yl)cyclohexyl)propan-2-yl)phthalazin-1-amine], the concentration for half-maximal inhibition (IC50) worked out at 9.7 nM. Regarding `C[C@H](C[C@H]1CC[C@H](c2ccnc3ccc(F)cc32)CC1)Nc1nc(Cl)nc2cc(C(F)(F)F)ccc12` [Example 58, 2-chloro-N-((R)-1-((trans)-4-(6-fluoroquinolin-4-yl)cyclohexyl)propan-2-yl)-7-(trifluoromethyl)quinazolin-4-amine], the half-maximal inhibitory concentration (IC50) turned out to be 16.8 nM. With `Cc1ccc2c(N[C@H](C)C[C@H]3CC[C@H](c4ccnc5ccc(F)cc54)CC3)nc(Cl)nc2c1` [Example 57, 2-chloro-N-((R)-1-((trans)-4-(6-fluoroquinolin-4-yl)cyclohexyl)propan-2-yl)-7-methylquinazolin-4-amine] the figure was 25.2 nM; with `C[C@H](C[C@H]1CC[C@@H](c2ccnc3ccc(F)cc32)CC1)Nc1nc(Cl)nc2ccccc12` [Example 38, 2-chloro-N-((R)-1-((cis)-4-(6-fluoroquinolin-4-yl)cyclohexyl)propan-2-yl)quinazolin-4-amine], 23.7 nM.

Values taken from patent US20240174636A1, “NOVEL INDOLEAMINE 2,3-DIOXYGENASE INHIBITORS, PROCESSES FOR THE PREPARATION THEREOF AND PHARMACEUTICAL COMPOSITIONS COMPRISING THE SAME” (YUHAN CORPORATION, priority 2021, published 2024).
